Measured values reported in US6787535B2, “Indole derivatives with 5HT6 receptor affinity” (Syntex (U.S.A.) LLC, priority 2001, dated 2004).
Counter-ions that a name gives are not always drawn.

Structure (SMILES) | melting point
O=S(=O)(c1ccncc1)c1c[nH]c2c(N3CCNCC3)cccc12 | 207 to 208 °C
O=S(=O)(c1ccccn1)c1c[nH]c2c(N3CCNCC3)cccc12 | 198 to 199 °C
O=S(=O)(c1ccccn1)c1c[nH]c2cc(N3CCNCC3)ccc12 | 246.7 to 247.2 °C
O=S(=O)(c1ccccc1)c1c[nH]c2ccc(N3CCNCC3)cc12 | 254 to 264 °C (dec.)
c1ccc(Sc2c[nH]c3c(N4CCNCC4)cccc23)cc1 | 300 °C
Clc1cccc(Sc2c[nH]c3ccc(N4CCNCC4)cc23)c1Cl | 255.1 to 255.5 °C
c1ccc(Sc2c[nH]c3ccc(N4CCNCC4)cc23)cc1 | 246 to 247 °C
O=S(=O)(c1ccccc1)c1c[nH]c2c(N3CCNCC3)cccc12 (as salt: hydrochloride) | 278 to 280 °C
Cc1ccc(S(=O)(=O)c2c[nH]c3c(N4CCNCC4)cccc23)cc1 [compound 102, 7-piperazin-1-yl-3-(toluene-4-sulfonyl)-1H-indole] | 285 to 287 °C
O=S(=O)(c1ccc(Cl)c(Cl)c1)c1c[nH]c2c(N3CCNCC3)cccc12 [compound 103, 3-(3,4-dichloro-benzenesulfonyl)-7-piperazin-1-yl-1H-indole] | 290 °C
O=S(=O)(c1ccc(F)cc1)c1c[nH]c2c(N3CCNCC3)cccc12 [compound 104, 3-(4-fluoro-benzenesulfonyl)-7-piperazin-1-yl-1H-indole] | 247 to 249 °C
O=S(=O)(c1cc(Cl)cc(Cl)c1)c1c[nH]c2c(N3CCNCC3)cccc12 [compound 105, 3-(3,5-dichloro-benzenesulfonyl)-7-piperazin-1-yl-1H-indole] | 290 °C
O=S(=O)(c1ccc(Cl)cc1Cl)c1c[nH]c2c(N3CCNCC3)cccc12 [compound 106, 3-(2,4-dichloro-benzenesulfonyl)-7-piperazin-1-yl-1H-indole] | 300 °C
O=S(=O)(c1cccc(Cl)c1)c1c[nH]c2c(N3CCNCC3)cccc12 [compound 107, 3-(3-chloro-benzenesulfonyl)-7-piperazin-1-yl-1H-indole] | 295 °C
O=S(=O)(c1ccccc1Cl)c1c[nH]c2c(N3CCNCC3)cccc12 [compound 108, 3-(2-chloro-benzenesulfonyl)-7-piperazin-1-yl-1H-indole] | 280 to 282 °C
O=S(=O)(c1ccccc1C(F)(F)F)c1c[nH]c2c(N3CCNCC3)cccc12 [compound 109, 7-piperazin-1-yl-3-(2-trifluoromethyl-benzenesulfonyl)-1H-indole] | 186 to 187 °C
O=S(=O)(c1cccc(Cl)c1)c1c[nH]c2ccc(N3CCNCC3)cc12 [compound 110, 3-(3-chloro-benzenesulfonyl)-5-piperazin-1-yl-1H-indole] | 192 to 197 °C
O=S(=O)(c1ccc(Cl)c(Cl)c1)c1c[nH]c2ccc(N3CCNCC3)cc12 [compound 111, 3-(3,4-dichloro-benzenesulfonyl)-5-piperazin-1-yl-1H-indole] | > 300 °C
O=S(=O)(c1nc2ccccc2s1)c1c[nH]c2c(N3CCNCC3)cccc12 [compound 114, 2-(7-piperazin-1-yl-1H-indole-3-sulfonyl)-benzothiazole] | 295 °C
O=S(=O)(c1cccc(Cl)c1Cl)c1c[nH]c2ccc(N3CCNCC3)cc12 [compound 202, 3-(2,3-dichloro-benzenesulfonyl)-5-piperazin-1-yl-1H-indole] | > 300 °C
O=S(=O)(c1ccc(C(F)(F)F)cc1)c1c[nH]c2ccc(N3CCNCC3)cc12 [compound 203, 5-piperazin-1-yl-3-(4-trifluoromethyl-benzenesulfonyl)-1H-indole] | 274.9 to 280.9 °C
O=S(=O)(c1ccc(Cl)cc1)c1c[nH]c2ccc(N3CCNCC3)cc12 [compound 204, 3-(4-chloro-benzenesulfonyl)-5-piperazin-1-yl-1H-indole] | 282 to 286.4 °C

Now from value to compound:

melting point | Structure (SMILES)
249 to 250 °C | Cn1cc(S(=O)(=O)c2ccccc2)c2cccc(N3CCNCC3)c21 (as salt: hydrochloride) [compound 401, 3-benzenesulfonyl-1-methyl-7-piperazin-1-yl-1H-indole hydrochloride]
160 to 162 °C | CN1CCN(c2cccc3c(S(=O)(=O)c4ccccc4)c[nH]c23)CC1 (as salt: hydrochloride) [compound 501, 3-benzenesulfonyl-7-(4-methyl-piperazin-1-yl)-1H-indole]
> 300 °C | O=S(=O)(c1cc(Cl)cc(Cl)c1)c1c[nH]c2ccc(N3CCNCC3)cc12 [compound 205, 3-(3,5-dichloro-benzenesulfonyl)-5-piperazin-1-yl-1H-indole]
> 300 °C | O=S(=O)(c1ccccc1Cl)c1c[nH]c2ccc(N3CCNCC3)cc12 [compound 206, 3-(2-chloro-benzenesulfonyl)-5-piperazin-1-yl-1H-indole]
289 to 291 °C | O=S(=O)(c1ccc(F)cc1)c1c[nH]c2ccc(N3CCNCC3)cc12 [compound 207, 3-(4-fluoro-benzenesulfonyl)-5-piperazin-1-yl-1H-indole]
272.3 to 272.9 °C | O=S(=O)(c1cccc(Cl)c1)c1c[nH]c2c(C3CCNCC3)cccc12 [compound 208, 3-(3-Chloro-benzenesulfonyl)-7-piperidin-4-yl-1H-indole]
186 to 189.5 °C | O=S(=O)(c1ccccc1)c1c[nH]c2c(C3CCNCC3)cccc12 [compound 301, 3-benzenesulfonyl-7-piperidin-4-yl-1H-indole]
297 to 298 °C | Cn1cc(S(=O)(=O)c2ccccn2)c2cccc(N3CCNCC3)c21 [compound 402, 1-methyl-7-piperazin-1-yl-3-(pyridine-2-sulfonyl)-1H-indole]
239 to 240 °C (dec.) | Cn1cc(S(=O)(=O)c2ccccc2)c2cc(N3CCNCC3)ccc21 [compound 403, 3-benzenesulfonyl-1-methyl-5-piperazin-1-yl-1H-indole]
295 °C | Cn1cc(S(=O)(=O)c2ccccc2C(F)(F)F)c2cccc(N3CCNCC3)c21 [compound 404, 1-methyl-7-piperazin-1-yl-3-(2-trifluoromethyl-benzenesulfonyl)-1H-indole]
300 °C | Cn1cc(S(=O)(=O)c2ccc(F)cc2)c2cccc(N3CCNCC3)c21 [compound 405, 3-(4-fluoro-benzenesulfonyl)-1-methyl-7-piperazin-1-yl-1H-indole]
279 to 280 °C | Cn1cc(S(=O)(=O)c2cccc(C(F)(F)F)c2)c2cccc(N3CCNCC3)c21 [compound 406, 1-methyl-7-piperazin-1-yl-3-(3-trifluoromethyl-benzenesulfonyl)-1H-indole]
295 to 297 °C | Cn1cc(S(=O)(=O)c2ccccc2Cl)c2cccc(N3CCNCC3)c21 [compound 407, 3-(2-chloro-benzenesulfonyl)-1-methyl-7-piperazin-1-yl-1H-indole]
300 °C | Cn1cc(S(=O)(=O)c2cccc(Cl)c2)c2cccc(N3CCNCC3)c21 [compound 408, 3-(3-chloro-benzenesulfonyl)-1-methyl-7-piperazin-1-yl-1H-indole]
198 to 203 °C | Cn1cc(S(=O)(=O)c2cccc(Cl)c2Cl)c2cc(N3CCNCC3)ccc21 [compound 409, 3-(2,3-dichloro-benzenesulfonyl)-1-methyl-5-piperazin-1-yl-1H-indole]
235 to 240 °C | Cn1cc(S(=O)(=O)c2cccc(C(F)(F)F)c2)c2cc(N3CCNCC3)ccc21 [compound 410, 1-methyl-5-piperazin-1-yl-3-(3-trifluoromethyl-benzenesulfonyl)-1H-indole]
282 to 284.5 °C | Cn1cc(S(=O)(=O)c2cc(Cl)cc(Cl)c2)c2cc(N3CCNCC3)ccc21 [compound 411, 3-(3,5-dichloro-benzenesulfonyl)-1-methyl-5-piperazin-1-yl-1H-indole]
195 to 207 °C | Cn1cc(S(=O)(=O)c2ccc(F)cc2)c2cc(N3CCNCC3)ccc21 [compound 413, 3-(4-fluoro-benzenesulfonyl)-1-methyl-5-piperazin-1-yl-1H-indole]
249.6 to 253 °C | Cn1cc(S(=O)(=O)c2ccccc2Cl)c2cc(N3CCNCC3)ccc21 [compound 414, 3-(2-chloro-benzenesulfonyl)-1-methyl-5-piperazin-1-yl-1H-indole]
185.5 to 188.5 °C | Cn1cc(S(=O)(=O)c2cccc(Cl)c2)c2cc(N3CCNCC3)ccc21 [compound 415, 3-(3-chloro-benzenesulfonyl)-1-methyl-5-piperazin-1-yl-1H-indole]
256.8 to 257.5 °C | Cn1cc(S(=O)(=O)c2ccccn2)c2cc(N3CCNCC3)ccc21 [compound 416, 1-methyl-5-piperazin-1-yl-3-(pyridine-2-sulfonyl)-1H-indole]
260 to 262 °C | CN1CCN(c2cccc3c(S(=O)(=O)c4ccccc4)cn(C)c23)CC1 [compound 502, 3-benzenesulfonyl-1-methyl-7-(4-methyl-piperazin-1-yl)-1H-indole]
196 to 203 °C | CN1CCN(c2cccc3c(S(=O)(=O)c4ccc(Cl)c(Cl)c4)c[nH]c23)CC1 [compound 503, 3-(3,4-dichloro-benzenesulfonyl)-7-(4-methyl-piperazin-1-yl)-1H-indole]
168.5 to 175.9 °C | CN1CCN(c2cccc3c(S(=O)(=O)c4ccccc4Cl)c[nH]c23)CC1 [compound 504, 3-(2-chloro-benzenesulfonyl)-7-(4-methyl-piperazin-1-yl)-1H-indole]
163 to 171 °C | CN1CCN(c2cccc3c(S(=O)(=O)c4cccc(Cl)c4)c[nH]c23)CC1 [compound 505, 3-(3-chloro-benzenesulfonyl)-7-(4-methyl-piperazin-1-yl)-1H-indole]
199 to 203 °C | CN1CCN(c2cccc3c(S(=O)(=O)c4ccc(Cl)cc4Cl)c[nH]c23)CC1 [compound 506, 3-(2,4-dichloro-benzenesulfonyl)-7-(4-methyl-piperazin-1-yl)-1H-indole]
237.1 to 241.5 °C | CN1CCN(c2cccc3c(S(=O)(=O)c4cc(Cl)cc(Cl)c4)c[nH]c23)CC1 [compound 507, 3-(3,5-dichloro-benzenesulfonyl)-7-(4-methyl-piperazin-1-yl)-1H-indole]
